Measured values as given in patent US4948797A, “2,2-disubstitued 2,3-dihydro-1,4-benzodioxin derivatives having hypotensive activity” (Istituto Luso Farmaco d'Italia S.p.A., priority 1988, dated 1990).

Experiments:
[1] = tested on: SHR rat; assay: anti-hypertensive activity in the SHR rat by oral route (with heart rate); type: in vivo
Source text: (§1) Bremner, Eur. J. Pharmacol 55, 323 (1979) and D. C. U. Prichard et al, Mol. Pharmacol 13, 454 (1977), while in vivo they seem to have a low toxicity and a good and durable anti-hypertensive activity, determined in the SHR rat by oral route, with the method reported by J Pfeffer et al, J. Lab. Clin. Med. 78, 957 (1971).

[2] = biological target: α1 receptors; assay: in vitro affinity for the α1 receptors, determined in respect of [^3 H]-Prazosin; type: binding
Source text: as §1

[3] = biological target: α2 receptors; assay: in vitro action on the α2 receptors, determined in respect of [^3 H]-Clonidine; type: binding
Source text: as §1

[4] = toxicity, expressed as LD50, oral; settings: in vivo

SMILES	effect on heart rate ([1]; 30 mg/kg/os dosage)	reduction in the pressure ([1]; SHR rat, 30 mg/kg/os dosage)	IC50 [2]	IC50 [3]	LD50 [4]	effect on heart rate ([1]; 20 mg/kg/os dosage)	reduction of the pressure ([1]; SHR rat, 20 mg/kg/os dosage)
COc1cc2nc(N3CCN(CC(O)C4(C)COc5ccccc5O4)CC3)nc(N)c2cc1OC.Cl (stereo not shown) [1-(4-amino-6,7-dimethoxyquinazolin-2-yl)-4-[2-(2,3-dihydro-2-methyl-1,4-benzodioxin-2-yl)-2-hydroxyethyl]-piperazine hydrochloride]	without significantly modifying the heart rate	20%	3.6 nM	> 10000 nM	> 2000 mg/kg	–	–
CC1(C(O)CN2CCC(n3c(=O)[nH]c4ccccc43)CC2)COc2ccccc2O1 (racemic) [1-[2-(2,3-dihydro-2-methyl-1,4-benzodioxin-2-yl)-2-hydroxy-ethyl]-4-piperidinyl]-1,3-dihydro-2H-benzimidazol-2-one]	–	–	55 nM	18000 nM	~1000 mg/kg	without significantly varying the heart rate	21%
